Measured values reported in article PMC5769417, “Single- and Multiple-Dose Trials to Determine the Pharmacokinetics, Safety, Tolerability, and Sex Effect of Oral Ginsenoside Compound K in Healthy Chinese Volunteers” (Frontiers in Pharmacology, 2018).

Experiments:
[1] = Single-dose trial, plasma pharmacokinetics; type: in vivo, human; conditions: single-dose trial, fasting
Description: Single-dose pharmacokinetics: The single-dose trial was performed first. […] Drinking before and after medication was prohibited for 2 h, but the amount and time of drinking were not strictly controlled at other times. All subjects had standard lunch and dinner (unified light diet) after medication 4 and 10 h. Single-dose pharmacokinetics: […] We preserved 8 ml specimens into 10 ml centrifuge tubes and stored at −70°C for PK assessment. All samples were preserved at −70°C and analyzed with a LC-MS/MS (API 4000 LC-MS/MS, ABI Company, Foster City, CA, USA) at the Institute of Clinical Pharmacology, Central South University (Changsha, China). […] An aqueous solution of a stable internal standard (IS for CK: digoxin, Shijiaoke Biological Technology Co. Ltd., Beijing, China; IS for PPD: coumarin, Sigma-Aldrich, St. Louis, USA) and 1 M phosphate buffer were added to 0.5 ml of thawed sample, and analytical standards and quality control (QC) samples were prepared in the same matrix. All samples were treated with 2 ml of methyl tert-butyl ether (MTBE, CNW technologies GmbH, Duesseldorf, Germany) to precipitate the bulk of plasma proteins. After mechanical shock by mixing for 10 min and a subsequent centrifugation (4,000 rpm, 4°C, 10 min), 1.4 ml of the supernatant was transferred and blow-dried with nitrogen in a water bath at 40°C. Lastly, the residue was dissolved in 100 μl of mobile phase and then was subjected to a mechanical shock by mixing, and centrifuged. The supernatant was subsequently injected into the column for analysis. […] Accuracy and precision of the assay were determined by evaluating the performance of the assay controls. Over the quantification range, the accuracy of the QC samples varied from 85 to 115% and the intra- and inter-assay imprecision was <15%. PK parameters were derived according to noncompartmental analysis and actual elapsed time from dosing by WinNonlin version 6.1 (Pharsight Corporation, Mountain View, CA, USA). […] The area under the curve (AUC) from time zero to the last time point (AUClast) and the AUC extrapolated to infinity (AUCinf) were calculated using the linear trapezoidal rule. The slope (elimination rate constant, K) of the terminal phase of the plasma concentration-time profile was determined, using a weighting factor of 1, by the method of least squares (log-linear regression of at least three data points). The t1/2 was estimated as (ln2)/K. […] The apparent volume of distribution (V/F) was equal to (CL/F)/K. The mean residence time (MRT) was calculated as the area under the first moments curve (AUMC) divided by AUC. The dose-normalized PK parameters e.g., Cmax/D and AUClast/D, were obtained by dividing each PK result by the administered dose. The cumulative excretion rate was calculated as the amount of unchanged drug in the urine over a time interval divided by the dose and was expressed as thousand points (‰).

[2] = Multiple-dose trial, plasma pharmacokinetics; type: in vivo, human
Description: Multiple-dose pharmacokinetics: […] Multiple-dose pharmacokinetics: […] All samples were preserved at −70°C and analyzed with a LC-MS/MS (API 4000 LC-MS/MS, ABI Company, Foster City, CA, USA) at the Institute of Clinical Pharmacology, Central South University (Changsha, China). […] An aqueous solution of a stable internal standard (IS for CK: digoxin, Shijiaoke Biological Technology Co. Ltd., Beijing, China; IS for PPD: coumarin, Sigma-Aldrich, St. Louis, USA) and 1 M phosphate buffer were added to 0.5 ml of thawed sample, and analytical standards and quality control (QC) samples were prepared in the same matrix. All samples were treated with 2 ml of methyl tert-butyl ether (MTBE, CNW technologies GmbH, Duesseldorf, Germany) to precipitate the bulk of plasma proteins. After mechanical shock by mixing for 10 min and a subsequent centrifugation (4,000 rpm, 4°C, 10 min), 1.4 ml of the supernatant was transferred and blow-dried with nitrogen in a water bath at 40°C. Lastly, the residue was dissolved in 100 μl of mobile phase and then was subjected to a mechanical shock by mixing, and centrifuged. The supernatant was subsequently injected into the column for analysis. […] Accuracy and precision of the assay were determined by evaluating the performance of the assay controls. Over the quantification range, the accuracy of the QC samples varied from 85 to 115% and the intra- and inter-assay imprecision was <15%. […] The area under the curve (AUC) from time zero to the last time point (AUClast) and the AUC extrapolated to infinity (AUCinf) were calculated using the linear trapezoidal rule. The slope (elimination rate constant, K) of the terminal phase of the plasma concentration-time profile was determined, using a weighting factor of 1, by the method of least squares (log-linear regression of at least three data points). The t1/2 was estimated as (ln2)/K. […] The apparent volume of distribution (V/F) was equal to (CL/F)/K. The mean residence time (MRT) was calculated as the area under the first moments curve (AUMC) divided by AUC. The dose-normalized PK parameters e.g., Cmax/D and AUClast/D, were obtained by dividing each PK result by the administered dose. The cumulative excretion rate was calculated as the amount of unchanged drug in the urine over a time interval divided by the dose and was expressed as thousand points (‰). On day 15 in the multiple-dose trial, the PK parameters, such as t1/2, CL/F, and V/F at steady state were calculated using the same method as that used for the single-dose trial. In addition, the Tmax at steady state (Tmax,ss), Cmax at steady state (Cmax,ss), and Cmin,ss were obtained from experimental observation after the steady state during the multiple-dose trial. […] The average steady-state drug concentration (Cavg) is calculated as AUCτ/τ, and the fluctuation ratio was calculated as (Cmax,ss − Cmin,ss)/Cavg. The accumulation index was calculated using dosing interval and elimination rate constant as in the following equation: 1/(1 − e^−Kτ).

[3] = 100 mg oral after breakfast, Day 1
[4] = 100 mg qd oral after breakfast, Day 15
[5] = 200 mg oral after breakfast, Day 1
[6] = 200 mg qd oral after breakfast, Day 15
[7] = 400 mg oral after breakfast, Day 1
[8] = 400 mg qd oral after breakfast, Day 15

Question: Which AUClast ([1]; 25 mg oral) does the source give for `CC(C)=CCC[C@](C)(O)[C@H]1CC[C@]2(C)[C@@H]1[C@H](O)C[C@@H]1[C@@]3(C)CC[C@H](O)C(C)(C)[C@@H]3CC[C@]12C` [20(S)-PPD, 20(S)-protopanaxadiol] here?
Answer: 32.4 ± 26.2 ng·h/mL

Question: What about the Cmax ([1]; 25 mg oral) of the same compound?
Answer: 1.6 ± 1.2 ng/mL

Question: What about the “Tmax, median (range)” value ([1]; 25 mg oral) of the same compound?
Answer: 12.0 (8.0–24.0) h

Question: And the AUClast ([1]; 50 mg oral)?
Answer: 43.9 ± 12.0 ng·h/mL

Question: And the Cmax ([1]; 50 mg oral)?
Answer: 1.8 ± 0.6 ng/mL

Question: And the “Tmax, median (range)” value ([1]; 50 mg oral)?
Answer: 24.0 (12.0–24.0) h

Question: And the AUClast ([1]; 100 mg oral)?
Answer: 167.6 ± 125.0 ng·h/mL

Question: And the Cmax ([1]; 100 mg oral)?
Answer: 6.3 ± 4.2 ng/mL

Question: And the “Tmax, median (range)” value ([1]; 100 mg oral)?
Answer: 24.0 (12.0–36.0) h

Question: And the AUClast ([1]; 200 mg oral)?
Answer: 117.8 ± 94.9 ng·h/mL

Question: And the Cmax ([1]; 200 mg oral)?
Answer: 3.5 ± 2.7 ng/mL

Question: What about the “Tmax, median (range)” value ([1]; 200 mg oral) of the same compound?
Answer: 24.0 (6.0–36.0) h

Question: And the AUClast ([1]; 400 mg oral)?
Answer: 157.1 ± 174.6 ng·h/mL

Question: What about the Cmax ([1]; 400 mg oral) of the same compound?
Answer: 4.8 ± 4.3 ng/mL

Question: And the “Tmax, median (range)” value ([1]; 400 mg oral)?
Answer: 24.0 (5.0–48.0) h

Question: And the AUClast ([1]; 600 mg oral)?
Answer: 269.8 ± 251.4 ng·h/mL

Question: What about the Cmax ([1]; 600 mg oral) of the same compound?
Answer: 9.5 ± 9.8 ng/mL

Question: And the “Tmax, median (range)” value ([1]; 600 mg oral)?
Answer: 36.0 (24.0–72.0) h

Question: And the AUClast ([1]; 800 mg oral)?
Answer: 179.1 ± 171.0 ng·h/mL

Question: And the Cmax ([1]; 800 mg oral)?
Answer: 5.1 ± 5.3 ng/mL

Question: And the “Tmax, median (range)” value ([1]; 800 mg oral)?
Answer: 30.0 (3.0–72.0) h

Question: What about the AUClast [2, 3] of the same compound?
Answer: 60.6 ± 44.9 ng·h/mL

Question: And the Cmax [2, 3]?
Answer: 1.8 ± 1.1 ng/mL

Question: And the “Tmax, median (range)” value [2, 3]?
Answer: 24.0 (24.0–36.0) h

Question: What about the AUClast [2, 4] of the same compound?
Answer: 154.5 ± 81.8 ng·h/mL

Question: What about the Cmax [2, 4] of the same compound?
Answer: 5.0 ± 2.5 ng/mL

Question: And the “Tmax, median (range)” value [2, 4]?
Answer: 5.5 (0.3–24.0) h

Question: What about the AUClast [2, 5] of the same compound?
Answer: 54.1 ± 58.8 ng·h/mL

Question: What about the Cmax [2, 5] of the same compound?
Answer: 2.3 ± 3.4 ng/mL

Question: And the “Tmax, median (range)” value [2, 5]?
Answer: 7.0 (4.0-48.0) h

Question: And the AUClast [2, 6]?
Answer: 170.9 ± 191.0 ng·h/mL

Question: What about the Cmax [2, 6] of the same compound?
Answer: 5.7 ± 6.1 ng/mL

Question: And the “Tmax, median (range)” value [2, 6]?
Answer: 6.0 (0.3–24.0) h

Question: And the AUClast [2, 7]?
Answer: 133.1 ± 127.6 ng·h/mL

Question: And the Cmax [2, 7]?
Answer: 4.3 ± 3.6 ng/mL

Question: And the “Tmax, median (range)” value [2, 7]?
Answer: 16.0 (3.0–36.0) h

Question: What about the AUClast [2, 8] of the same compound?
Answer: 463.1 ± 512.3 ng·h/mL

Question: What about the Cmax [2, 8] of the same compound?
Answer: 11.0 ± 10.2 ng/mL

Question: And the “Tmax, median (range)” value [2, 8]?
Answer: 5.5 (0.5–8.0) h

Question: And the “concentration of metabolite relative to the parent drug” value ([2]; Day 1, 100–400 mg CK)?
Answer: 0.08–0.16%
